These are literature values, as cited in patent publication US8354566B2, “Lubricating oil additive and lubricating oil composition containing same” (Chevron Oronite Company LLC, priority 2010, dated 2013).

The subject of the data set is estrogen-inducible strain of yeast. The note with it: compared among alkylphenols and with 17β-estradiol.

Take `CC(C)(C)CC(C)(C)c1ccc(O)cc1` [4-tert-octylphenol, 4-(1,1,3,3-Tetramethyl-butyl)-phenol]: the estrogenic activity entry was “highest activity”.
